Measured values as given in patent US11098077B2, “Locked nucleic acid cyclic dinucleotide compounds and uses thereof” (CHINOOK THERAPEUTICS, INC., priority 2016, dated 2021).

Experiments:
hSTING WT = biological target: T1, hSTING WT (Homo sapiens, UniProt Q86WV6, H232R); test: Differential scanning fluorometry (DSF) binding to purified STING AA140-379, wild type; conditions: DSF; ligand 1 mM; 1 mg/ml STING AA140-379
T1 construct: DNA encoding amino acids 140-379 (amino acid numbering corresponding to Swiss Prot Q86WV6); 6xHIS (N, cleaved yes); SUMO (N, cleaved yes); made in house; host or cells: Rosetta2 (DE3) E. coli
Procedure: (§1) Cells were grown in lysogeny broth at 37° C. until a […] absorbance of 0.6 was reached. […] Cell pellets were re-suspended on ice in a buffer containing 50 mM Tris hydrochloride (Tris-HCl) pH 7.5, 500 mM sodium chloride (NaCl), 20 mM imidazole, 10% glycerol, 1 mM tris(2-carboxyethyl)phosphine hydrochloride (TCEP) and protease inhibitor tablet (Pierce) (Buffer A). Cells were lysed using an S-450D sonifier (Emmerson industrial) on ice. […] Protein was aliquoted, flash frozen in liquid nitrogen and stored at −80° C. until use.
(§2) The protein is heated in the presence of a dye that binds to and fluoresces in hydrophobic environments. The protein is thermally denatured by heating resulting in increased dye binding to the unfolded protein and fluorescence. The temperature midpoint (Tm) of a proteins denaturation is established by calculating the half maximal value of the denaturation curve. The temperature midpoint of the protein in the presence of a ligand is directly related to the affinity of the ligand for the protein and therefore its ability to stabilize the protein at higher temperatures.
(§3) Each of wild type hSTING, HAQ allele hSTING and REF allele hSTING were used with each of the reference compounds and compounds of the invention as listed in Table 4. Samples were placed in hard shell PCR plate (Bio-Rad). The fluorescence as a function of temperature was recorded in a CFX 96 real time PCR machine (Bio-Rad) reading on the HEX channel, excitation 450-490, emission 560-580 nm. The temperature gradient was from 15-80° C. ramping 0.5° C. per 15 seconds and recording every 0.5° C. After subtraction of the background signal from a sample lacking protein and ligand. The midpoint temperature (Tm) was calculated by fitting the curves of the fluorescence as a function of temperature to a Boltzmann sigmoidal function (Graph Pad Prism).

hSTING HAQ allele = biological target: T2, hSTING HAQ allele (Homo sapiens, UniProt Q86WV6, G230A/H232R/R293Q); test: Differential scanning fluorometry (DSF) binding to purified STING AA140-379, HAQ allele; conditions: ligand 1 mM, 1 mg/ml STING AA140-379
T2 construct: DNA encoding amino acids 140-379 (amino acid numbering corresponding to Swiss Prot Q86WV6); 6xHIS (N, cleaved yes); SUMO (N, cleaved yes); made in house; host or cells: Rosetta2 (DE3) E. coli
Procedure: as §1, §2, §3

hSTING REF allele = biological target: T3, hSTING REF allele (Homo sapiens, UniProt Q86WV6); test: Differential scanning fluorometry (DSF) binding to purified STING AA140-379, REF allele; conditions: DSF; ligand 1 mM; 1 mg/ml STING AA140-379
T3 construct: DNA encoding amino acids 140-379 (amino acid numbering corresponding to Swiss Prot Q86WV6); 6xHIS (N, cleaved yes); SUMO (N, cleaved yes); made in house; host or cells: Rosetta2 (DE3) E. coli
Procedure: as §1, §2, §3

[1] = biological target: T4, hSTING HAQ allele in THP1-Dual cells (Homo sapiens, UniProt Q86WV6, G230A/H232R/R293Q/R71H); test: THP1-Dual IRF-3 inducible secreted luciferase reporter assay (type I interferon activation), without digitonin; type: cell-based
T4 construct: a human monocyte cell line containing the hSTING HAQ allele; host or cells: THP1-Dual cells
Procedure: After 30 minutes, cells were washed and fresh RPMI media containing 10% FBS was added, and cells were incubated at 37° C. with 5% CO2 Cell culture supernatants from each sample were collected after overnight incubation, and 10 μL of the cell culture supernatants was added to 50 μL QUANTI-Luc reagent (Invivogen). Type I interferon activation was determined by measuring secreted luciferase levels on a SpectraMax M3 spectrophotometer (Molecular Devices).

[2] = tested on: B16.SIY melanoma tumor cells; test: B16.SIY melanoma tumor model, intra-tumoral injection (Example 13); type: in vivo, C57BL/6 mice
Procedure: (§4) Tumors were measured twice weekly.

[3] = tested on: SIY-specific T cells in splenocytes; test: IFNγ ELISPOT of splenocytes stimulated with SIY peptide; type: in vivo, C57BL/6 mice; conditions: day 7 post IT injection
[4] = tested on: SIY-specific CD8+ T cells in splenocytes; test: FACS of splenocytes with SIY pentamer (SIY+ CD8+ T cells); type: in vivo, C57BL/6 mice; conditions: day 7 post IT injection
Procedure: as §4
Data analysis was conducted with FlowJo software (Tree Star).

[5] = tested on: serum TNF-α, IFN-γ, IL-6, MCP-1; conditions: mouse, in vivo
Procedure: (§5) To assess the ability of the LNA-CDN molecules to promote anti-tumor immunity in aggressive murine tumor models, 6-8 week old female C57BL/6 mice (8 mice per group) were implanted with B16.SIY melanoma tumor cells (1×10^6 cells in 100 μL PBS). […] Treatments began when tumors reached a volume of approximately 100 mm^3, on day 9 post tumor implantation. The compounds were administered by a single subcutaneous injection into the center of the tumor (IT) using a 27 gauge needle. Tumors were measured twice weekly.

[6] = tested on: serum TNF-α, IFN-γ, IL-6, MCP-1; test: Systemic serum pro-inflammatory cytokines by Mouse Inflammation Cytometric Bead Array; conditions: from serum cytokines six hours post-IT injection
Procedure: as §5

T2 sequence (Q86WV6 140-379 G230A/H232R/R293Q limits assumed): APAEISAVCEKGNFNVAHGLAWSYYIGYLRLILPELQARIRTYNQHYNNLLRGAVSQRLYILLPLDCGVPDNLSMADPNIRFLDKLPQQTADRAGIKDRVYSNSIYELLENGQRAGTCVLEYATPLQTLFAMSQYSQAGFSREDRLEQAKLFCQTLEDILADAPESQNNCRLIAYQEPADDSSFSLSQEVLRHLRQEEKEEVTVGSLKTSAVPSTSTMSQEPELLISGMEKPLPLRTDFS
T1 sequence (Q86WV6 140-379 H232R limits assumed): as the sequence (Q86WV6 140-379 G230A/H232R/R293Q limits assumed) above, with A91G, Q154R counted along it
T3 sequence (Q86WV6 140-379): as the sequence (Q86WV6 140-379 G230A/H232R/R293Q limits assumed) above, with A91G, R93H, Q154R counted along it
T4 sequence (Q86WV6 whole entry R71H/G230A/H232R/R293Q): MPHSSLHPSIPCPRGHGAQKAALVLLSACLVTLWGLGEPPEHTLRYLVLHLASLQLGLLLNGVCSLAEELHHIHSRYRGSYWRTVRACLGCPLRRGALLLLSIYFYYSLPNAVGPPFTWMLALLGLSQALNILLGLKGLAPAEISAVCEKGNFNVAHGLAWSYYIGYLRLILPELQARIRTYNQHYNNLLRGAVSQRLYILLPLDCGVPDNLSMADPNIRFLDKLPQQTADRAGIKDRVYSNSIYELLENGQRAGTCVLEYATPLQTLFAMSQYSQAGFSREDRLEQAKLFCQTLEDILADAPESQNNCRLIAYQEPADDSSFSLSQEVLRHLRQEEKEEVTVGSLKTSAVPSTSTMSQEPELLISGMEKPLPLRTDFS

## Nc1ncnc2c1ncn2[C@@H]1O[C@@H]2CO[P@@](=O)(S)O[C@H]3[C@H]4OC[C@]3(CO[P@](=O)(S)O[C@@H]1[C@@H]2O)O[C@H]4n1cnc2c(N)ncnc21 [Compound 10c]
hSTING WT
  hSTING Tm Shift WT: 6.5 °C
hSTING HAQ allele
  hSTING Tm Shift HAQ: 10.4 °C
hSTING REF allele
  hSTING Tm Shift REF: 5.0 °C
[1]
  EC50: > 150 µM
[2]; single IT injection, 1 μg dose
  tumor efficacy compared to reference compound 2′3′-RR-(A)(A): comparable tumor efficacy as compared to the reference compound 2′3′-RR-(A)(A)
[2]; single IT injection, 0.1, 1, 10 and 100 μg
  tumor inhibition (tumor volume) compared to HBSS: potent tumor inhibition as compared to HBSS, in a dose-dependent manner
[3]; 1 μg dose
  IFNγ ELISPOT T cell responses compared to reference compound 2′3′-RR-(A)(A): comparable responses
[3]; all doses tested (0.1, 1, 10, 100 μg)
  IFNγ ELISPOT responses compared to HBSS: significantly higher responses
[3]
  range of efficacy (doses giving IFNγ ELISPOT response): an even broader range of efficacy than Compound 5a
[4]
  range of dose responses (therapeutic window for anti-tumor immunity): a broader range of dose responses
[5]
  systemic cytokines compared with 2′3′-RR-(A)(A): significantly lower systemic cytokines than 2′3′-RR-(A)(A)
[6]
  safety profile compared to reference compound 2′3′-RR-(A)(A): superior safety profile
